The text below walks through data of patent US20060035901A1, “Methotrexate derivatives useful for treating cancer and arthritis” (Serenex, Inc., priority 2004, published 2006).

Molecules are shown by their SMILES.

The target in test [1] is T1, propionyl-CoA carboxylase subunit alpha (PCCA) (Sus scrofa, UniProt P0DTA4).
T1 construct: a porcine liver proteome was run over an ATP-Sepharose™ column; from tissue; host or cells: porcine liver
T1 sequence (P0DTA4 53-730): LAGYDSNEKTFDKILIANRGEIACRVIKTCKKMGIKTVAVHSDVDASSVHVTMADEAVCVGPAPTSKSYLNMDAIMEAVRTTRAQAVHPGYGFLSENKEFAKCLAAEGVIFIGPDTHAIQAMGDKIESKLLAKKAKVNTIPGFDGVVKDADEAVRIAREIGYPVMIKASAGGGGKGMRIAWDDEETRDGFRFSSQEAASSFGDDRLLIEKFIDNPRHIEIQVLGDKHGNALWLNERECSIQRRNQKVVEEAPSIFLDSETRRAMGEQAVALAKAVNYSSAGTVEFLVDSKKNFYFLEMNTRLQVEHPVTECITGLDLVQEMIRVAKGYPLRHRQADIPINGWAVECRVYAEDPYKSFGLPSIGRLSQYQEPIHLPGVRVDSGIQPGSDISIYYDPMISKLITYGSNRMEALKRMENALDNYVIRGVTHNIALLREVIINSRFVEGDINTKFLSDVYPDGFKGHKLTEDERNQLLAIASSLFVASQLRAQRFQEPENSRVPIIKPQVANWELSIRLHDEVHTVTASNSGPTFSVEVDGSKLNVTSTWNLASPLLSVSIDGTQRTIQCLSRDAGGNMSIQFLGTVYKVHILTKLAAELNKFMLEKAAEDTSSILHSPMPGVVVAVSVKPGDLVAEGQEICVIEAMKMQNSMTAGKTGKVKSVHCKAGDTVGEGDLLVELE
T1 sequence (P79384 29-539 partner): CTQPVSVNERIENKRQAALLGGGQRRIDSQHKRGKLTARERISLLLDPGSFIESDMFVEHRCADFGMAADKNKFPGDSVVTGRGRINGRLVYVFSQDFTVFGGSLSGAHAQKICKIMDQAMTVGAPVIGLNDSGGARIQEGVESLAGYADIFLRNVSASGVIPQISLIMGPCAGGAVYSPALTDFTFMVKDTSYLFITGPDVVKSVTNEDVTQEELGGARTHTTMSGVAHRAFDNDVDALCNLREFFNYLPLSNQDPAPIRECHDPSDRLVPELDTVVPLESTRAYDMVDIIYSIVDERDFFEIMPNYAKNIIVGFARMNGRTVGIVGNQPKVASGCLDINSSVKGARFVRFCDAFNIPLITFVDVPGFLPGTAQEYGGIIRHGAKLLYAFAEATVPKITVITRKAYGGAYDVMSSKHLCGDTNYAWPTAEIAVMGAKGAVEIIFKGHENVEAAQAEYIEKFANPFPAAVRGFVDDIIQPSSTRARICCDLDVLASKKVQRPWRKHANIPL
Kind of test: Elution of PCCA from ATP-Sepharose column loaded with porcine liver proteome, IC50 estimate. To be noted: estimated from percent of protein eluted from ATP-Sepharose column, read-out: Approximate IC50 for PCCA. The format is binding. As to the method:
Similar experiments were carried out to compare the IC50 values for PYC, PCCA, and PCCB. In these trials, a porcine liver proteome was run over an ATP-Sepharose™ column to bind all purine-binding proteins. The ATP-Sepharose™ column was washed several times, and then eluted with the compound of Formula III at concentrations of 1 μM, 5 μM, 10 μM, 50 μM, 100 μM, and 500 μM to identify proteins that bound to this compound.
(§1) Gels were stained with a fluorescent stain such as sypro ruby (a highly sensitive fluorescent protein stain that can readily detect less than 1 fmol of total protein, i.e., less than 0.04 ng for a 40 kDa protein). The gels were imaged using a standard flat bed gel imager and the amount of protein estimated by densiometry. The percent of protein eluted from the column at each concentration was determined and IC50 values were calculated from these estimates. Where necessary, the eluted proteins were cut out of the gel, and identified using mass spectral techniques.
The values obtained were then compared to those for DHFR.

A further test addresses Her2 (Homo sapiens, UniProt P04626). The experiment in a line: Elution of Her2 from ATP-Sepharose column by compound (Proteome Mining), IC50 estimate. It counts as binding. To be noted: estimated from percent of protein eluted from ATP-Sepharose column, gel densitometry; read-out: Approximate IC50 for Her2. As to the method: as §1, with “A proteome containing a known quantity of Her2, EGFR, and B-Raf was run over an ATP-Sepharose™ column in order to bind all purine-binding proteins. […] The ATP-Sepharose™ was washed several times, and then eluted with the compound of Formula III. The experiment was run in duplicate at concentrations of 20 μM, 100 μM, and 500 μM of the compound of Formula III. The eluted fractions were run on a 1-dimensional SDS polyacrylamide gel. Gels” for “Gels”

Chain of Her2 (P04626 23-1255, species assumed): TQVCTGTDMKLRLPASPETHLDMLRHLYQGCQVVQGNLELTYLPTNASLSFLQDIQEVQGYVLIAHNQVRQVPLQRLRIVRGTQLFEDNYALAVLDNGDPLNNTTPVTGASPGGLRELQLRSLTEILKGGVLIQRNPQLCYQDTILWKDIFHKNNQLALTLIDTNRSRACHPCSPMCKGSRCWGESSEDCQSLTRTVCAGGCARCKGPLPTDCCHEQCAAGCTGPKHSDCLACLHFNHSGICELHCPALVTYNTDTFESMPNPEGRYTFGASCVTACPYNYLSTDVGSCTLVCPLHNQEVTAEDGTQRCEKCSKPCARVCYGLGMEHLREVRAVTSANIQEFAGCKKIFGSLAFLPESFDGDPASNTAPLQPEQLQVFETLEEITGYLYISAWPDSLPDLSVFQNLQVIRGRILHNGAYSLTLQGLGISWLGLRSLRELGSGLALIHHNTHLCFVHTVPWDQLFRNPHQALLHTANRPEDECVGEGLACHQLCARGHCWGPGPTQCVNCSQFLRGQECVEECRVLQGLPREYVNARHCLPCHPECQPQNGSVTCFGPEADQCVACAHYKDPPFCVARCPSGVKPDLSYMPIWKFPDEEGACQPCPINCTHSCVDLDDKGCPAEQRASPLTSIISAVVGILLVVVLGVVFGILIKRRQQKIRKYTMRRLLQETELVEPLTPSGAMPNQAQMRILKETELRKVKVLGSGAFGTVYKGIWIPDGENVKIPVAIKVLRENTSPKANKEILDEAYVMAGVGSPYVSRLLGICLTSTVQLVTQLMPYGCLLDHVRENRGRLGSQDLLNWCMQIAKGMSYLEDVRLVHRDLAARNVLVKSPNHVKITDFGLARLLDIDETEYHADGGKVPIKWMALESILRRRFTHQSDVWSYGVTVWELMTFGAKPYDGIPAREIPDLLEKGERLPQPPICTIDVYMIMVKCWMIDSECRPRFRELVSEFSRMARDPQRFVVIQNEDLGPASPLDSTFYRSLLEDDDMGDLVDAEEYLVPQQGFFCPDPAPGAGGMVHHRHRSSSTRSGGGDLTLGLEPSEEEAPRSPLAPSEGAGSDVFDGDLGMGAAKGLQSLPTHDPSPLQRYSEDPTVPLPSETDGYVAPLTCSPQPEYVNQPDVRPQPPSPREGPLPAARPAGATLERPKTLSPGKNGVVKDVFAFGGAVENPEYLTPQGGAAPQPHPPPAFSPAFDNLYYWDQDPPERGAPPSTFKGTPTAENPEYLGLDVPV

Regarding `C#CCN(Cc1cnc2nc(N)nc(N)c2n1)c1ccc(C(=O)NC(CCC(=O)O)C(=O)O)cc1OC(F)(F)F` (centres unmarked) [Formula IX], the half-maximal inhibitory concentration (IC50) in test [1] was 10 µM; on Her2, 7.5 µM.

As to `C#CCN(Cc1cnc2nc(N)nc(N)c2n1)c1ccc(C(=O)NC(CCC(=O)O)C(=O)O)cc1C` (centres unmarked) [Formula III, 2-{4-[(2,4-diamino-pteridin-6-ylmethyl)-prop-2-ynyl-amino]-3-methyl-benzoylamino}-pentanedioic acid], the IC50 is 2 µM in test [1] and 0.9 µM on Her2.

As to `Cc1cc(C(=O)NC(CCC(=O)O)C(=O)O)ccc1N(Cc1ccoc1)Cc1cnc2nc(N)nc(N)c2n1` (centres unmarked) [Formula VII], the IC50 is 2 µM in test [1] and 5 µM on Her2.

For `C#CCN(Cc1cnc2nc(N)nc(N)c2n1)c1ccc(C(=O)NC(CCC(=O)O)C(=O)O)cc1OC` (centres unmarked) [Formula VIII], the results for the IC50 (in test [1]; on Her2) were 2 µM and 5 µM, respectively.

The term IC50 denotes the concentration needed to halve the response being measured.
